Molecular target: T1, human PPAR α (Homo sapiens, UniProt Q07869)
T1 construct: expressed in transfected cells; host or cells: HepG2 (ATCC HB-8065) or 293T cells (ATCC CRL-1573)
T1 sequence (Q07869 239-466 limits assumed): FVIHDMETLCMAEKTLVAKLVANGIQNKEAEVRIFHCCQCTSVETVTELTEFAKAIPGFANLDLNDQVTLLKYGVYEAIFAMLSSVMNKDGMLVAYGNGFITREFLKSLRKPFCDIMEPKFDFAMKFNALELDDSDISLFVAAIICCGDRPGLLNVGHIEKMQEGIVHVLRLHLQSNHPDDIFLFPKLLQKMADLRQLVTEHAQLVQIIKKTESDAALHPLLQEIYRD
Assay: Exogeneous PPAR α agonist assay (GAL4 DNA binding domain/PPAR α ligand binding domain, luciferase) in 293T cells
Type: cell-based
Design: scale not given here
Settings: 25 μM compound, 48 hours, luciferase activity increase relative to the control
Method: Step 1) Exogeneous PPAR α Agonist Assay
Cross-activation assay of the compounds of Examples 1 to 134 against human PPAR α was carried out using a DNA construct of PPAR α including its ligand binding domain and GAL4 DNA binding domain (Sher et al., Biochemistry 32, 5598-5604, 1993) to analyze whether any of the compounds binds to the ligand binding domain of PPAR α expressed by the construct to affect the PPAR α activity. When the GAL4 DNA binding domainm which is fused with PPAR α ligand binding domain, binds to UAS (upstream activation sequence) of firefly-luciferase, the luciferase is expressed. Therefore, the effect of each of the compounds of Examples on PPAR α activation can be evaluated by analyzing the activation of luciferase.
Specifically, 2×10^4 of HepG2 (ATCC HB-8065) or 293T cells (ATCC CRL-1573) were aliquotted into each well of a 96-well plate and cultured for overnight at 37° C. in a CO2 incubator (culture condition: DMEM, 10% FBS and 1% antibiotics).
The transformation of PPAR α DNA was traced as follows. First, a mixture of the following ingredients in amounts per well; Solution A (Promega) containing 50 ng of full length human PPAR α DNA, 50 ng of firefly-luciferase construct, 5 ng of Renilla-luciferase construct, 1.0 μl of PLUS™ reagent, and 8.3 μl of a serum-free medium containing no antibiotics; was prepared and kept at room temperature for 15 min. Solution B, which contained 0.5 μl of Lipofectamine™ reagent and 9.5 μl of serum-free medium without antibiotics per well, and Solution C, which contained 50 μl of serum-free medium per well), were prepared. Solutions A, B and C were mixed together to prepare lipofectamin-DNA complex, and the mixture was kept at room temperature for 15 min. Single layer of cells on each well of a 96-well plate were washed with serum-free DMEM, 70 μl of lipofectamine-DNA complex prepared above was added thereto, the plate was incubated at 37° C. in a 5% CO2 incubator for 3 hours to transform the cells, and […] of a diluted solution of each of the compounds of Examples 1 to 134 per well was added to each well to a final concentration 25 μM, and incubated at 37° C. in a CO2 incubator for 48 hours. Then, the medium was removed, 50 μl of passive lysis buffer (Promega) was added thereto, and the plate was shook at room temperature for 20 min to lysis cells. 40 μl of Luciferase Assay reagent of Dual Luciferase Kit […] per 20 μl of cell lysis buffer was added to the plate, followed by reacting at 20° C. for 8 seconds, and 40 μl of Stop & Glo reagent (Promega) as a stop solution was added thereto to quench the reaction. The luminescence intensities of F-luciferase and R-luciferase were measured with MicroLumat Plus (Berthord Technology).

Cc1ccc(-c2nc(CCOc3cccc(CN(CC(=O)O)S(=O)(=O)N4CCCC4)c3)c(C)o2)cc1 [Example 84, [N-(pyrrolidinyl)sulfonyl-N-[3-[2-[2-(4-methylphenyl)-5-methyloxazol-4-yl]ethoxy]benzyl]amino]acetic acid]
Activity at 25 μM Step 1 293T cell: 1

Cc1oc(-c2ccccc2)nc1COc1cccc(CN(CC(=O)O)S(=O)(=O)N(C)c2ccc(Cl)cc2)c1 [Example 18, [N—[[N-methyl-N-(4-chlorophenyl)]amino]sulfonyl-N-[3-[(2-phenyl-5-methyloxazol-4-yl)methoxy]benzyl]amino]acetic acid]
Activity at 25 μM Step 1 293T cell: 2

Cc1oc(-c2ccc(C(F)(F)F)cc2)nc1COc1ccc(CN(CC(=O)O)S(=O)(=O)N2CCc3ccccc32)cc1 [Example 55, [N-(indolinyl)sulfonyl-N-[4-[[2-(4-trifluoromethylphenyl)-5-methyloxazol-4-yl]methoxy]benzyl]amino]acetic acid]
Activity at 25 μM Step 1 293T cell: 2

Cc1oc(-c2ccccc2)nc1COc1cccc(CN(CC(=O)O)S(=O)(=O)N(C)c2ccccc2)c1 [Example 14, [N—[(N-methyl-N-phenyl)amino]sulfonyl-N-[3-[(2-phenyl-5-methyloxazol-4-yl)methoxy]benzyl]amino]acetic acid]
Activity at 25 μM Step 1 293T cell: 2

Cc1oc(-c2ccc(C(F)(F)F)cc2)nc1COc1ccc(CN(CC(=O)O)S(=O)(=O)N(C)c2ccccc2)cc1 [Example 47, [N—[(N-methyl-N-phenyl)amino]sulfonyl-N-[4-[[2-(4-trifluoromethylphenyl)-5-methyloxazol-4-yl]methoxy]benzyl]amino]acetic acid]
Activity at 25 μM Step 1 293T cell: 2

Cc1oc(-c2ccccc2)nc1CCOc1ccc(CN(CC(=O)O)S(=O)(=O)N(C)c2ccccc2)cc1 [Example 105, [N—[(N-methyl-N-phenyl)amino]sulfonyl-N-[4-[2-(2-phenyl-5-methyloxazol-4-yl)ethoxy]benzyl]amino]acetic acid]
Activity at 25 μM Step 1 293T cell: 2

Cc1ccc(-c2nc(COc3ccc(CN(CC(=O)O)S(=O)(=O)N(C)C)cc3)c(C)o2)cc1 [Example 39, [N—(N,N-dimethylamino)sulfonyl-N-[4-[[2-(4-methylphenyl)-5-methyloxazol-4-yl]methoxy]benzyl]amino]acetic acid]
Activity at 25 μM Step 1 293T cell: 2

Cc1oc(-c2ccccc2)nc1CCOc1ccc(CN(CC(=O)O)S(=O)(=O)N2CCCc3ccccc32)cc1 [Example 120, [N-(1,2,3,4-tetrahydroquinolinyl)sulfonyl-N-[4-[2-(2-phenyl-5-methyloxazol-4-yl)ethoxy]benzyl]amino]acetic acid]
Activity at 25 μM Step 1 293T cell: 2

Cc1oc(-c2ccc(C(F)(F)F)cc2)nc1CCOc1cccc(CN(CC(=O)O)S(=O)(=O)NC(C)(C)C)c1 [Example 66, [N—(N-t-butylamino)sulfonyl-N-[3-[2-[2-(4-trifluoromethylphenyl)-5-methyloxazol-4-yl]ethoxy]benzyl]amino]acetic acid]
Activity at 25 μM Step 1 293T cell: 1

Cc1oc(-c2ccc(C(F)(F)F)cc2)nc1COc1ccc(CN(CC(=O)O)S(=O)(=O)N(C)C)cc1 [Example 40, [N—(N,N-dimethylamino)sulfonyl-N-[4-[[2-(4-trifluoromethylphenyl)-5-methyloxazol-4-yl]methoxy]benzyl]amino]acetic acid]
Activity at 25 μM Step 1 293T cell: 2

Cc1ccc(-c2nc(COc3ccc(CN(CC(=O)O)S(=O)(=O)N4CCc5ccccc54)cc3)c(C)o2)cc1 [Example 54, [N-(indolinyl)sulfonyl-N-[4-[[2-(4-methylphenyl)-5-methyloxazol-4-yl]methoxy]benzyl]amino]acetic acid]
Activity at 25 μM Step 1 293T cell: 2

Cc1oc(-c2ccccc2)nc1CCOc1ccc(CN(CC(=O)O)S(=O)(=O)N(C)c2ccc(Cl)cc2)cc1 [Example 109, [N—[[N-methyl-N-(4-chlorophenyl)]amino]sulfonyl-N-[4-[2-(2-phenyl-5-methyloxazol-4-yl)ethoxy]benzyl]amino]acetic acid]
Activity at 25 μM Step 1 293T cell: 3
